Among the data in patent publication US8466107B2, “Fibrin-binding peptides and conjugates thereof” (Bracco Imaging SpA, priority 2006, dated 2013) are tumor signal enhancement values, retold here.

Bridge positions count the residues as written; N and C are the ends.

This assay has as its system neuroblastoma (Neuro-2a) tumor. Put plainly: In vivo MRI test of fibrin imaging in neuroblastoma tumor mouse model. As to conditions: mice with neuroblastoma tumor; 25 μmol/kg iv.; T1 weighted MRI at 2T, 4 h post injection. The source says: Three groups of 5 mice each, inoculated with 2·10^6 neuroblastoma cells with PBS, were formed and tested as follows: • Group a: Reference compound 2, • Group b: Chelate Complex 1 • Group c: ProHance® (see Protocol)
At day-10 post tumor cells inoculation, at least 4 mice per group with similar tumor size (5-10 mm in diameter) were selected for the in vivo MRI tests. After pre-contrast MRI acquisition (T1 and T2 high resolution 2D spin-echo and 3D gradient echo images), the test compounds were administered (25 μmol/kg iv.) and MRI was performed at 4 h and 24 h post injection. Maximum signal intensity was measured in the entire tumor area and in each post contrast image covering the whole tumor and the signal was compared to the pre-contrast images. At the end of MRI exams, all animals were sacrificed and the tumor, blood, liver, kidneys and femoral bone were removed and prepared for Gd assay by ICP-AES. […]
The mean signal intensity was measured within a region of interest (ROI) including the entire tumor, drawn by an operator on each MR image using dedicated software (MR Research Systems Ltd, Surrey UK). Signal intensity enhancement (Enh %) was determined as: Enh%=100*(SIx(t)−SI0)/SI0 […]

Consider “Chelated Complex 1: Gd chelated complex (four DTPA-Glu units on branched lysine linker) conjugated to the fibrin-binding peptide; MRI contrast agent (Ac-WQPCPAESWTFCWDPGGGK-NH2; disulfide 4-12; not fully specified (some residues); also: further groups not given here)”, for which the tumor signal enhancement entry is “significant tumor signal enhancement”.
